Results taken from paper PMC6321509, “Search of Allosteric Inhibitors and Associated Proteins of an AKT-like Kinase from Trypanosoma cruzi” (International Journal of Molecular Sciences, 2018).
Where two headings read alike, the source gives them in different places.

How the values were obtained:
Type in all cases: cell-based
Leishmania braziliensis = test: In vitro experiments on Leishmania braziliensis; settings: mean ± SD
in vitro = settings: MTT, read-out: LC50 lethal concentration on human monocyte-derived macrophages (hMDMD)
Procedure: The cytotoxicity of the compounds was evaluated according to the ability to kill macrophages derived from human monocytes (hMDM) by the […] method, following the procedures performed by Pastrana Restrepo et al.. The hMDM were obtained from 50 mL of desfribrinated whole blood from healthy donors. These samples were mixed in a 1:1 ratio with Dulbecco PBS free of calcium and magnesium (DPBS). The mixture was centrifuged in a Ficoll Hypaque 1077 density gradient in a 1:3 ratio (blood–Ficoll) for separation of mononuclear cells, centrifuging at 2000 rpm for 20 min at 37 °C. The mononuclear cell layer was separated and these cells were washed twice with a solution of DPBS centrifuged at 13000 rpm for 10 min. After the last wash, the cells were resuspended in an RPMI medium with 10% autologous serum at a concentration of 0.3 × 10^6 cells/mL. Then, 1 mL of cells was placed in each well of 24-well culture dishes and incubated at 37 °C, 5% CO2 for 72 h to allow the differentiation of monocytes to macrophages. For the MTT test, the hMDM were adjusted to a concentration of 0.5 × 10^6 cells/mL in the RPMI medium supplemented with 10% FBS, and the concentration of the compound in the culture was adjusted (four serial dilutions starting at 200 μM). Amphotericin B and Doxorubicin were used as controls for the determination of cytotoxicity. Each experiment was performed in triplicate.
In this case, the in vitro cytotoxicity was defined by the decrease in the cell viability and growth, obtained from the OD for each experimental condition, using the following formula: (%) viability inhibition = […], where the OD of untreated cells corresponds to 100% of the viability. Growth inhibition percentage data obtained for each experimental condition were used to calculate the half lethal concentration (LC50) by the Probit analysis.
The cytotoxicity of each compound was rated according to its LC50. […]

T. cruzi amastigote = test: In vitro antitrypanosomal activity, amastigotes in U937 macrophages (β-galactosidase Tulahuen strain); settings: Trypanosoma cruzi, U-937; infected U937 macrophages, 72 h; mean ± SD; read-out: IC50 inhibitory concentration of T. cruzi amastigote
Procedure: A human promonocitic U937 line was cultivated in RPMI-1640 medium with 10% fetal bovine serum (FBS) at a concentration of 0.25 × 10^6 cells/mL; the cells were transformed into macrophages by being incubated with phorbol 12-myristate 13-acetate (PMA) at 0.1 µg/mL. To adhere the cells, 0.1 mL of cells was added in 96-well dishes. Adherence was carried out for 72 h, and then epimastigote were added in the stationary phase of the Tulahuen strain producing β-galactosidase, at 5 parasite/cellU937 concentrations for 24 h at 37 °C with 5% CO2. To calculate the IC50 (Table 2), different concentrations of the compounds to evaluate and Benznidazole were added at an initial concentration of 20 µg/mL and 6 serial dilutions were made as a control of the effectiveness of the experiment, in addition to the control of the viability of the parasites (cells without drug treatment), from the blank of the culture medium (medium without cells), in duplicate. The cells were incubated for 72 h at 37 °C with 5% of CO2. […] The colorimetric reaction was read at 570 nm and optical densities (OD) for each experimental condition were registered. […] The half inhibitory concentration (IC50) was calculated by the Probit method using the % of inhibition for each concentration. […]

Row | Structure (SMILES) | IC50 (Leishmania braziliensis) | CC50 (in vitro; mean ± SD) | CC50 (in vitro) | IC50 (T. cruzi amastigote)
1 | C[C@@H]1[C@H](O)[C@@H](C)/C=C/C=C/C=C/C=C/C=C/C=C/C=C/[C@H](O[C@@H]2O[C@H](C)[C@@H](O)[C@H](N)[C@@H]2O)C[C@@H]2O[C@](O)(C[C@@H](O)C[C@@H](O)[C@H](O)CC[C@@H](O)C[C@@H](O)CC(=O)O[C@H]1C)C[C@H](O)[C@H]2C(=O)O [Amphotericin B] | 0.3 ± 0.07 µM | 49.8 ± 6.82 µM |  | 
2 | O=C(Cn1ccnc1[N+](=O)[O-])NCc1ccccc1 [Benznidazole] |  |  | > 200 µg/mL | 16.6 ± 4 µM
3 | COc1cccc2c1C(=O)c1c(O)c3c(c(O)c1C2=O)C[C@@](O)(C(=O)CO)C[C@@H]3O[C@H]1C[C@H](N)[C@H](O)[C@H](C)O1 [Doxorrubicin, Doxorubicin] |  | 3.91 ± 0.4 µM |  | 
